Patent US8716287B2, “Pharmaceutical compounds” (Sentinel Oncology Limited, priority 2010, dated 2014)
“Also recorded” adds a separate entry of the source. Structures can show the parent of a compound that is named as a salt. Where two headings read alike, the source gives them in different places.

What was measured:
HT29 cells = assay: Sensitisation of HT29 cells to SN38 (Alamar blue cell growth); type: cell-based, human; details: for fold shift in the IC50 value of SN38: HT29 cells; for Cell potentiation factor: SN38 sensitisation assay in HT-29 cells, compound at 3 μM
Protocol: Studies were carried out to test the sensitising effect of compounds of the invention on the ability of the DNA damaging compound 7-ethyl-10-hydroxycamptothecin (SN38), an active metabolite of the anti-cancer drug irinotecan, to inhibit cell growth in HT29 cells.
The following protocol was used:
(a) HT29 cells were seeded in 96-well plates at a concentration of 3000 cells per well and allowed to adhere overnight prior to addition of compound or vehicle control.
(b) SN38 was prepared from a 10 mM DMSO stock to give a final concentration range of 1 μM, 300 nM, 100 nM, 30 nM, 10 nM, 3 nM, 1 nM, and vehicle control.
(c) Test compounds were prepared from 10 mM DMSO stocks to typically give a final concentration range of 3 μM, 1 μM, 0.3 μM. 0.1 μM, 0.03 μM and vehicle control. The final DMSO content was 0.4%.
(d) Test compounds were incubated with the cells for 72 h at 37° C. 5% CO2 in a humidified atmosphere.
(e) Alamar blue 10% (v/v) was then added and incubated for a further 6 h, and fluorescent product detected using the BMG FLUOstar plate reader.
(f) Data were analysed using a 4-parameter logistic equation in GraphPad Prism.
Sensitisation is determined by the enhancement in IC50 of SN38 by the addition of the Chk-1 kinase inhibitor. In the protocol described above, the IC50 for SN-38 is determined the presence of varying doses of the Chk-1 inhibitor. The fold shift represents a decrease in IC50 for SN-38 at a dose of Chk-1 inhibitor that has no effect by itself.

Chk-1 kinase = Chk-1 kinase (Homo sapiens (Human), UniProt O14757); assay: Chk-1 kinase inhibiting activity (33P-ATP filter assay, CHKtide substrate); type: biochemical
Protocol: The compounds of the invention were tested for activity against Chk-1 kinase using the materials and protocols set out below.
Base Reaction buffer: 20 mM Hepes (pH 7.5), 10 mM MgCl2, 1 mM EGTA, 0.02% Brij35, 0.02 mg/ml BSA, 0.1 mM Na3VO4, 2 mM DTT, 1% DMSO
*Required cofactors are added individually to each kinase reaction
(i) Prepare indicated substrate in freshly prepared Base Reaction Buffer
(ii) Deliver any required cofactors to the substrate solution above
(iii) Deliver indicated kinase into the substrate solution and gently mix
(iv) Deliver compounds in DMSO into the kinase reaction mixture
(v) Deliver ^33P-ATP (specific activity 0.01 μCi/μl final) into the reaction mixture to initiate the reaction.
(vi) Incubate kinase reaction for 120 minutes at room temperature
(vii) Reactions are spotted onto P81 ion exchange paper (Whatman #3698-915)
(viii) Wash filters extensively in 0.1% phosphoric acid.
(ix) Dry filters and measure counts in scintillation counter
Recombinant full length construct, N-terminal GST tagged, purified from insect cells.
No special measures were taken to activate this kinase.
Final concentration in assay=0.5 nM
Peptide sequence: [[…]]
Final concentration in assay=20 μM
No additional cofactors are added to the reaction mixture

[1] = Chk-1 kinase, Table 3, read-out: IC50
[2] = ranges given, read-out: IC50 values against Chk-1 kinase
[3] = comparative tests, Example 70, read-out: Chk-1 IC50

Sequence of Chk-1 kinase (O14757 whole entry): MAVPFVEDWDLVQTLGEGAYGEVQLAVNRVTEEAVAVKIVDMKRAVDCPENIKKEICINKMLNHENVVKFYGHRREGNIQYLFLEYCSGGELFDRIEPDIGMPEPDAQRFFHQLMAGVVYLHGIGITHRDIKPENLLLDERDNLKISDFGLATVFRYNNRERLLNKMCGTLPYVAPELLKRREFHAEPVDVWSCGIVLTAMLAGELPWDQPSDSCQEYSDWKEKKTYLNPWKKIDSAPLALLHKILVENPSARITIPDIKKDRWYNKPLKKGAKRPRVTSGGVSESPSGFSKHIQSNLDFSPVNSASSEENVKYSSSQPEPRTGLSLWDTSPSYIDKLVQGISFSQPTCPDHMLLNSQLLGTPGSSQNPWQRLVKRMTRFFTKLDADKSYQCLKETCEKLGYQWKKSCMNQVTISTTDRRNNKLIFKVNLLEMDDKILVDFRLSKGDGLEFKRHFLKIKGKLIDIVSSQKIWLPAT

Row | SMILES | fold shift in the IC50 value of SN38 (HT29 cells; test compound at 1 μM) | IC50 (Chk-1 kinase; [1]) [nM] | IC50 (Chk-1 kinase; [2]) [nM] | fold shift in the IC50 value of SN38 (HT29 cells; test compound at 3 μM) | Cell potentiation factor (HT29 cells) [fold] | IC50 (Chk-1 kinase; [3]) [nM] | fold improvement in potency against Chk-1 enzyme (Chk-1 kinase; relative to Example 30 (alkylene chain 1 to 2 carbon atoms)) [fold]
1 | N#Cc1cnc(NC(=O)Nc2ccc(CCNCc3cccc(Cl)c3)c(Cl)c2)cn1 [Example 13, 1-{3-Chloro-4-[2-(3-chloro-benzylamino)-ethyl]-phenyl}-3-(5-cyano-pyrazin-2-yl)-urea hydrochloride] | two | 37 | 10 to 100 | – | – | – | –
2 | C[C@H](NCCc1ccc(NC(=O)Nc2cnc(C#N)cn2)cc1Cl)c1ccc(F)cc1 [Example 18, 1-(3-Chloro-4-{2-[(S)-1-(4-fluoro-phenyl)-ethylamino]-ethyl}-phenyl)-3-(5-cyano-yrazin-2-yl)-urea hydrochloride] | two | 21 | 10 to 100 | – | – | – | –
3 | COc1cc(CCNCCc2ccc(F)cc2)ccc1NC(=O)Nc1cnc(C#N)cn1 [Example 31, 1-(5-Cyano-pyrazin-2-yl)-3-(4-{2-[2-(4-fluoro-phenyl)-ethylamino]-ethyl}-2-methoxy-phenyl)-urea] | – | 2.7 | < 10 | three | – | – | –
4 | N#Cc1cnc(NC(=O)Nc2ccc(CCNCCc3ccc(F)cc3)c(Cl)c2)cn1 [Example 7, 1-(3-Chloro-4-(2-(4-fluorophenethylamino)ethyl)phenyl)-3-(5-cyanopyrazin-2-yl)urea] | two | 16 | 10 to 100 | – | – | – | –
5 | N#Cc1cnc(NC(=O)Nc2ccc(CCNCc3cccc(N4CCOCC4)c3)c(Cl)c2)cn1 [Example 39, 1-{3-Chloro-4-[2-(3-morpholin-4-yl-benzylamino)-ethyl]-phenyl}-3-(5-cyano-pyrazin-2-yl)-urea] | – | 12 | – | three | – | – | –
6 | N#Cc1cnc(NC(=O)Nc2ccc(CCNCc3ccc(OC(F)(F)F)cc3)c(Cl)c2)cn1 [Example 14, 1-{3-Chloro-4-[2-(4-trifluoromethoxy-benzylamino)-ethyl]-phenyl}-3-(5-cyano-pyrazin-2-yl)-urea] | – | 68 | 10 to 100 | three | – | – | –
7 | N#Cc1cnc(NC(=O)Nc2ccc(OCCNCc3ccc(F)cc3F)c(Cl)c2)cn1 [Example 6, 1-{3-Chloro-4-[2-(2,4-difluoro-benzylamino)-ethoxy]-phenyl}-3-(5-cyano-pyrazin-2-yl)-urea] | – | 26 | 10 to 100 | three | – | – | –
8 | COc1ccccc1CNCCc1ccc(NC(=O)Nc2cnc(C#N)cn2)cc1Cl [Example 16, 1-{3-Chloro-4-[2-(2-methoxy-benzylamino)-ethyl]-phenyl}-3-(5-cyano-pyrazin-2-yl)-urea] | two | 13 | 10 to 100 | – | – | – | –
9 | N#Cc1cnc(NC(=O)Nc2ccc(CCNCc3ccc(C(F)(F)F)cc3)c(Cl)c2)cn1 [Example 17, 1-{3-Chloro-4-[2-(4-trifluoromethyl-benzylamino)-ethyl]-phenyl}-3-(5-cyano-pyrazin-2-yl)-urea hydrochloride] | two | 78 | 10 to 100 | – | – | – | –
10 | N#Cc1cnc(NC(=O)Nc2ccc(CCNCc3ccc(F)cc3)cc2)cn1 [Example 2, 1-(5-Cyano-pyrazin-2-yl)-3-{4-[2-(4-fluoro-benzylamino)-ethyl]-phenyl}-urea] | – | 44 | 10 to 100 | three | – | – | –
11 | COc1cc(CCNCc2ccc(F)cc2)ccc1NC(=O)Nc1cnc(C)cn1 [Example 27, 1-{4-[2-(4-Fluoro-benzylamino)-ethyl]-2-methoxy-phenyl}-3-(5-methyl-pyrazin-2-yl)-urea hydrochloride] | – | 33 | 10 to 100 | three | – | – | –
12 | N#Cc1cnc(NC(=O)Nc2ccc(CCNCc3ccccc3)cc2)cn1 [Example 1, 1-[4-(2-Benzylamino-ethyl)-phenyl]-3-(5-cyano-pyrazin-2-yl)-urea] | – | 200 | 100 to 1000 | three | 4 | 99 | ~3
13 | N#Cc1cnc(NC(=O)Nc2ccc(CCNCc3ccc(F)cc3F)c(Cl)c2)cn1 [Example 5, 1-{3-Chloro-4-[2-(2,4-difluoro-benzylamino)-ethyl]-phenyl}-3-(5-cyano-pyrazin-2-yl)-urea] | – | 38 | 10 to 100 | three | – | – | –
14 | COc1cc(CNCc2ccc(F)cc2)ccc1NC(=O)Nc1cnc(C#N)cn1 [Example 57, 1-(5-Cyano-pyrazin-2-yl)-3-{4-[(4-fluoro-benzylamino)-methyl]-2-methoxy-phenyl}-urea hydrochloride] | two | 8.9 | < 10 | greater than ten | – | – | –
15 | COc1ccc(CNCc2ccc(NC(=O)Nc3cnc(C#N)cn3)c(OC)c2)cc1 [Example 60, 1-(5-Cyano-pyrazin-2-yl)-3-{2-methoxy-4-[(4-methoxy-benzylamino)-methyl]-phenyl}-urea] | – | 1.6 | < 10 | three; also recorded: greater than ten | – | – | –
16 | CN(CCc1ccc(NC(=O)Nc2cnc(C#N)cn2)cc1Cl)Cc1ccc(F)cc1 [Example 11, 1-(3-Chloro-4-{2-[(4-fluoro-benzyl)-methyl-amino]-ethyl}-phenyl)-3-(5-cyano-pyrazin-2-yl)-urea] | – | 146 | 100 to 1000 | three | – | – | –
17 | N#Cc1cnc(NC(=O)Nc2ccc(OCCNCc3ccc(F)cc3)c(Cl)c2)cn1 [Example 26, 1-{3-Chloro-4-[2-(4-fluoro-benzylamino)-ethoxy]-phenyl}-3-(5-cyano-pyrazin-2-yl)-urea] | – | 21 | 10 to 100 | three | – | – | –
18 | COc1cc(CNCc2ccccc2)ccc1NC(=O)Nc1cnc(C)cn1 [Compound 338, reference compound] | – | – | – | – | 5 | 99 | –
19 | COc1ccc(CNCCc2ccc(NC(=O)Nc3cnc(C#N)cn3)cc2Cl)cc1 [Example 15, 1-{3-Chloro-4-[2-(4-methoxy-benzylamino)-ethyl]-phenyl}-3-(5-cyano-pyrazin-2-yl)-urea] | – | 3.5 | < 10 | three; also recorded: greater than ten | – | – | –
20 | N#Cc1cnc(NC(=O)Nc2cccc(CCNCc3ccc(F)cc3)c2)cn1 [Example 34, 1-(5-Cyano-pyrazin-2-yl)-3-{3-[2-(4-fluoro-benzylamino)-ethyl]-phenyl}-urea] | – | 69 | – | three | – | – | –
21 | N#Cc1cnc(NC(=O)Nc2ccc(CCNCc3ccc(F)c(F)c3)c(Cl)c2)cn1 [Example 40, 1-{3-Chloro-4-[2-(3,4-difluoro-benzylamino)-ethyl]-phenyl}-3-(5-cyano-pyrazin-2-yl)-urea] | – | 7.9 | < 10 | three | – | – | –
22 | N#Cc1cnc(NC(=O)Nc2ccc(CCNCc3ccc(Cl)cc3)c(Cl)c2)cn1 [Example 8, 1-{3-Chloro-4-[2-(4-chloro-benzylamino)-ethyl]-phenyl}-3-(5-cyano-pyrazin-2-yl)-urea] | – | 11 | 10 to 100 | three; also recorded: greater than ten | – | – | –
23 | N#Cc1cnc(NC(=O)Nc2ccc(CCNCc3ccc(F)cc3F)cc2)cn1 [Example 3, 1-(5-Cyano-pyrazin-2-yl)-3-{4-[2-(2,4-difluoro-benzylamino)-ethyl]-phenyl}-urea] | – | 179 | 100 to 1000 | three | – | – | –
